Reference: ChEMBL document CHEMBL1125264, “2'-Deoxy-2'-methylenecytidine and 2'-deoxy-2',2'-difluorocytidine 5'-diphosphates: potent mechanism-based inhibitors of ribonucleotide reductase” (J Med Chem, 1991)

Key:
[1] = target: Ribonucleoside-diphosphate reductase (Escherichia coli); test: Compound was evaluated for time-dependent inactivation of Ribonucleotide diphosphate reductase (RDPR) in Escherichia coli
[2] = test system: Ribonucleoside-diphosphate reductase (Escherichia coli); test: Compound was evaluated for time-dependent inactivation of rRibonucleotide diphosphate reductase (RDPR) in Escherichia coli

With `C=C1[C@H](n2ccc(=O)[nH]c2=O)O[C@H](COP(=O)(O)OP(=O)(O)O)[C@H]1O` the Ki [1] was 830 µM and the K inact [2] was 0.015 s⁻¹.
